Where two headings read alike, the source gives them in different places. Where a SMILES comes first, the peptide text is derived from it. [ ]: non-standard residue; d: D form. The star is where a group is joined. Sta = CC(C)C[C@H](N)[C@@H](O)CC(=O)O; Isovaleryl = CC(C)CC(=O)*
Legend:
[1] = tested on: p16^INK4a; assay: Stabilization of p16INK4a by proteinase inhibitors in mtm lysis medium
[2] = Stability of proteinase inhibitors in water
[3] = Solubility of proteinase inhibitors in water
[4] = inhibitor at the concentration listed in Table 2

Row | SMILES | p16^INK4a stabilization in mtm Lysis medium [1, 4] | stability in water [2] | Solubility in water [3] | p16^INK4a stabilization in mtm Lysis medium [1]
1 | NCCc1ccc(S(=O)(=O)F)cc1 [Pefabloc= AEBSF, AEBSF] | yes | – | – | –
2 | N=C(N)c1ccccc1 [Benzamidine] | no | good | good | –
3 | O=C(O)CN(CCN(CC(=O)O)CC(=O)O)CC(=O)O [EDTA] | – | – | – | no
4 | CC(C)C[C@H](NC(=O)[C@@H](O)[C@H](N)Cc1ccccc1)C(=O)O [Bestatin] | no | good | good | –
5 | CC(C)CC(=O)N[C@H](C(=O)N[C@H](C(=O)N[C@@H](CC(C)C)[C@@H](O)CC(=O)N[C@@H](C)C(=O)N[C@@H](CC(C)C)[C@@H](O)CC(=O)O)C(C)C)C(C)C [Pepstatin A] (Isovaleryl-VV[Sta]A[Sta]-OH) | no | – | – | –
6 | O=S(=O)(F)Cc1ccccc1 [PMSF] | yes | – | – | –
7 | CC(=O)N[C@@H](CC(C)C)C(=O)N[C@@H](CC(C)C)C(=O)N[C@H](C=O)CCCNC(=N)N [Leupeptin] | no | good | good | –

More lines, main results first:

Row | p16^INK4a stabilization in mtm Lysis medium [1, 4] | stability in water [2] | Solubility in water [3] | SMILES | p16^INK4a stabilization in mtm Lysis medium [1]
8 | no | poor | bad | CCOC(=O)[C@H]1O[C@@H]1C(=O)N[C@@H](CC(C)C)C(=O)NCCC(C)C [EST] | –
9 | no | poor | poor | CCOC(=O)[C@@H]1O[C@H]1C(=O)NC(CC(C)C)C(=O)N1CCN(Cc2ccc(OC)c(OC)c2OC)CC1.CCOC(=O)[C@@H]1O[C@H]1C(=O)NC(CC(C)C)C(=O)N1CCN(Cc2ccc(OC)c(OC)c2OC)CC1.O=S(=O)(O)O (stereo partly shown) [NCO-700] | –
10 | no | good | poor | CC(C)C[C@H](NC(=O)N[C@H](C(=O)N[C@@H](CCC(N)=O)C(=O)N[C@@H](C)C=O)[C@@H]1CCNC(=N)N1)C(=O)O [Elastatinal] | –
11 | no | poor | bad | c1cnc2c(c1)ccc1cccnc12 [o-Phenanthroline] | –
12 | no | good | good | CC(C)C[C@H](NC(=O)[C@H]1O[C@@H]1C(=O)O)C(=O)NCCCCN=C(N)N [E-64] | –
13 | no | good | good | CCCC[C@@H](C=O)NC(=O)[C@H](CC(C)C)NC(=O)OCc1ccccc1 [Calpeptin] | –

From patent EP1628135A1, “Method for detecting medically relevant conditions in a solubilized LBC sample” (MTM Laboratories AG, priority 2004, dated 2006)
